Test results published in US20250314644A1, “METHODS COMPRISING DETECTION OF ADP-HEPTOSE” (CHILDREN'S HOSPITAL MEDICAL CENTER, priority 2023, published 2025).

Columns and labels:
Dnmt3a^−/− HSCs [1] = assay: ADP-heptose treatment of low-dose irradiated chimeric mice: donor HSC number in BM, EdU proliferation, secondary transplant; type: in vivo, mouse
Description: To model pre-leukemic clonal hematopoiesis, chimeric mice were generated as aas follows. Briefly, mixture of 1×10^6 whole bone marrow cells (WBM) were obtained from Poly (I:C) treated wild-type (Dnmt3a^+/+; MxCre^+, called Dnmt3a^WT) or mutant mice (Dnmt3a^f/f; MxCre^+, called Dnmt3a^KO) or double mutant mice (Dnmt3a^f/f; MxCre^+; Alpk1^KO, called Dnmt3a^KO; Alpk1^KO) (CD45.2^+), and transplanted into low-dose (2.5 Gy) irradiated recipient mice (CD45.1^+; 6-10 weeks of age). 8 weeks post-transplant, chimeric mice were treated with either water (H2O) or DSS (2.5%) for 1 week, and allowed to recover for 1 more week on water after which flow cytometry was performed on BM. In separate experiment, chimeric mice were pre-treated with broad spectrum antibiotics (ABX) for 4 weeks, and then subjected to DSS for 1 week after which flow cytometry performed on BM. In a separate set of experiment, chimeric mice were treated with either H2O or ADP-heptose (0.5 mg/kg) for 2 weeks, and flow cytometry performed after 2 more weeks on BM. In all the experiments, secondary transplantation was performed by purifying donor HSCs (CD45.2^+Lin^−Sca-1^+c-Kit^+Flk2^−CD150^+CD48^−) and transplanting 100 HSCs with 200,000 helper WBM cells (CD45.1+) into lethally irradiated (8 Gy) recipient mice (CD45.1^+), and donor chimerism in PB examined by flow cytometry.

Dnmt3a^−/− HSCs [2] = assay: NF-κB activation in vitro (NF-κB^GFP reporter, immunoblot); type: cell-based, mouse; details: NF-κB^GFP HSCs compared to WT
Description: (§1) Because intestinal epithelial injury and dysbiosis mediate the expansion of Dnmt3a-mutant pre-leukemic cells was observed, Applicant evaluated whether this occurs because of ADP-heptose-mediated ALPK1 signaling. Indeed, Dnmt3a^−/− HSCs were exquisitely sensitive to ADP-heptose stimulation in vitro. […] Activation of NF-κB in Dnmt3a^−/− HSPCs occurred following treatment with ADP-heptose (FIG. 3L). […] Constitutive combined activation of NF-κB and MAPK, such as during chronic inflammation with IL-1β, promotes differentiation of HSCs at the expense of self-renewal, leading to depletion of the HSC population.
(§2) Dnmt3a^f/f and MxCre^+ (obtained from H. Lee Grimes Laboratory, CCHMC)^33, Alpk1^−/− (11 bp deletion in exon 3, C57BL/6N-Alpk1^em1Fsha/J, Cat no. 032561, Jackson Laboratory), Tifa^−/− (gift from Jun-Ichiro Inoue, University of Tokyo, Japan), and UBC-GFP (C57BL/6-Tg(UBC-GFP)30Scha/J, Cat no. 004353, Jackson Laboratory) mice were maintained on CD45.2+C57BL/6 background. NF-kB^GFP reporter mice were generously provided by C. Jobin. Throughout the study, CD45.1+B6.SJL-Ptprc^a (BoyJ) mice were used as recipients for BM transplantation experiments. […] Mice were bred, housed and monitored daily by laboratory staff and veterinary personnel for health and activity. […]
(§3) Protein concentration was evaluated by bicinchoninic acid (BCA) assay (Pierce, Cat #23225). […]

WT HSPCs = assay: as above; type: cell-based, mouse
Description: as §1, §2, §3

Nc1ncnc2c1ncn2[C@@H]1O[C@H](COP(=O)(O)OP(=O)(O)O[C@@H]2O[C@H]([C@H](O)CO)[C@@H](O)[C@H](O)[C@@H]2O)[C@@H](O)[C@H]1O [ADP-heptose, ADP-D-glycero-β-D-manno-heptose]
expansion of Dnmt3a^−/− HSCs in BM (Dnmt3a^−/− HSCs [1]; ADP-heptose 0.5 mg/kg for 2 weeks): rapid and significant expansion | proliferation of HSCs in vivo (EdU) (Dnmt3a^−/− HSCs [1]; Dnmt3a^−/− HSCs, within 2 weeks): significant proliferation | self-renewal in secondary recipient mice (Dnmt3a^−/− HSCs [1]; secondary transplant of donor HSCs): sustained self-renewal | NF-κB activation (NF-κB^GFP reporter) (Dnmt3a^−/− HSCs [2]): robust and sustained NF-κB activation | concentration of ADP-heptose required to induce NF-κB activation (WT HSPCs): > 1 µM
